# Data taken from patent US5021408A, “Hydrocortisone-17-oxo-21-thioesters, their preparation and their uses as medicaments” (Jouveinal S.A., priority 1983, dated 1991).
# Read-outs that look alike come from different tables or passages of the source.
# Key:
# [1] = tested on: inflammation of the ear in the mouse; experiment: Local anti-inflammatory activity, croton oil ear inflammation (method derived from Tonelli); type: in vivo; settings: for Anti-inflammatory activity EC50: mouse ear, croton oil, concentration giving 50% reduction in inflammation vs controls; for Anti-inflammatory activity: Activity/ref. 21 act. hydro: relative to hydrocortisone-21-acetate = 1
# Procedure: I.1. Local anti-inflammatory activity
# This study was carried out in accordance with a method derived from that of Tonelli (Endocrinology, Vol. 77, page 625, 1965).
# The test consists of causing inflammation of the ear in the mouse using a croton oil-based irritating solution.
# The addition of a local anti-inflammatory substance to this solution leads to a reduced inflammation action compared with that of the controls, i.e. treated with the irritating solution only.
# The results of the study are expressed in EC50, which is the p/v % concentration of the dissolved product able to bring about a 50% reduction in the inflammation compared with that caused in the controls.
# [2] = Dissociation ratio R local anti-inflammatory activity / systemic activity; type: in vivo, mouse (ear inflammation) and rat (thymus); settings: lower value = greater dissociation of activities
# Procedure: The results obtained by this study make it possible to calculate the activity ratio:
# local anti-inflammatory activity
# The value of this ratio indicates the dissociation of the activities and is inversely proportional to the size of the dissociation, i.e. the lower this value, the greater the dissociation.
# This value was calculated on the basis of the expression: [formula]
# thymus weight = experiment: Systemic (thymolytic) activity, thymus weight reduction after oral administration; type: in vivo, rat (Wistar)
# Procedure: (§1) Determination of systemic activity side effects
# (§2) These effects were evaluated by means of their thymolytic activity.
# (§3) The repeated administration of systemic activity products leads to a weakening of the defence systems of the organism. More especially in young animals, this leads to a reduction in the weight of two organs of the reticuloendothelial system, namely the spleen and the thymus, the latter being the most sensitive to this effect.
# (§4) This activity was determined by means of a study of the activity of products on the weight reduction of the thymus of animals.
# (§5) The product to be studied, suspended in 5% p/v gum arabic were orally administered daily for four consecutive days to young rats of the Wistar strain. Under the same conditions, a control batch of animals received an identical volume of the excipient.
# (§6) 96 hours after the first administration, the animals were killed and their thymus removed and immediately weighed.
# (§7) The results of the study are expressed in ED50, which corresponds to the daily dose in milligrams able to bring about a 50% thymus weight reduction for 1 kilogram animal weight, compared with the controls (mg/kg^-1 /day^-1).
# [3] = as above; type: in vivo, rat (Wistar); settings: rat
# Procedure: as §1, §2, §3, §4, §5, §6, §7
# erythema = settings: reported by O. J. Lorenzetti; cited from earlier work
# granuloma = settings: according to N. Bodor; cited from earlier work
# [4] = relative to hydrocortisone-21-acetate = 1
# [5] = young Wistar rats, oral, daily for four consecutive days, 50% thymus weight reduction vs controls, read-out: Systemic activity ED50
Compound,Anti-inflammatory activity EC50 [1] [% p/v],Anti-inflammatory activity: Activity/ref. 21 act. hydro [1],R (local anti-inflammatory activity / systemic activity) [2],"Systemic activity: Activity/ref. 21 act. hydro (thymus weight; rat, in vivo, 5760 min)","ED50 at 96 h ([3]; in vivo, po) [mg/kg]",Systemic activity: Activity/ref. 21 act. hydro (thymus weight; [4]),"ED50 at 96 h [3, 5] [mg/kg]","ED50 at 96 h ([3]; in vivo, young Wistar rats, oral, daily for four consecutive days, 50% thymus weight reduction vs controls, read-out: Systemic activity ED50) [mg/kg]",activity in the erythema test compared with the vasoconstriction test (erythema),activity in the granuloma test (granuloma),"systemic activity, times lower than that of prednisolone-21-thioacetate-17-valerate (thymus weight; rat, in vivo, po, 5760 min) [times]"
CCCCC(=O)O[C@]1(C(=O)CSC(C)=O)CC[C@H]2[C@@H]3C[C@H](C)C4=CC(=O)C=C[C@]4(C)[C@H]3[C@@H](O)C[C@@]21C [6-α-methylprednisolone-21-thioacetate-17-valerate],0.5,0.6,116.3,0.325,43,,,,,,
"CCCC(=O)O[C@]1(C(=O)COC(=O)CC)CC[C@H]2[C@@H]3CCC4=CC(=O)CC[C@]4(C)[C@H]3[C@@H](O)C[C@@]21C [Hydrocortisone-21-propionate-17-butyrate, hydrocortisone-21-propionate-17-butyrate]",0.0047,63.8,6.52,,,1.95,7.2,,,,
CCC(=O)O[C@]1(C(=O)CSC(=O)CC)[C@@H](C)C[C@H]2[C@@H]3CCC4=CC(=O)C=C[C@]4(C)[C@@]3(Cl)[C@@H](O)C[C@@]21C [beclomethasone-21-thiopropionate-17-propionate],0.0175,17.1,9.21,0.74,19,,,,,,
CCC(=O)O[C@]1(C(=O)CSC(C)=O)[C@@H](C)C[C@H]2[C@@H]3CCC4=CC(=O)C=C[C@]4(C)[C@@]3(F)[C@@H](O)C[C@@]21C [betamethasone-21-thioacetate-17-propionate],0.010,30.0,40.0,5.60,2.5,,,,,,
CC(=O)OCC(=O)[C@@]1(O)CC[C@H]2[C@@H]3CCC4=CC(=O)CC[C@]4(C)[C@H]3[C@@H](O)C[C@@]21C [hydrocortisone-21-acetate],0.30,1,214,,,1,14,,,,
CCC(=O)O[C@]1(C(=O)CSC(=O)CC)[C@@H](C)C[C@H]2[C@@H]3CCC4=CC(=O)C=C[C@]4(C)[C@@]3(F)[C@@H](O)C[C@@]21C [betamethasone-21-thiopropionate-17-propionate],0.0013,231,4.33,4.66,3,,,,,,
CCC(=O)SCC(=O)[C@@]1(OC(C)=O)[C@@H](C)C[C@H]2[C@@H]3CCC4=CC(=O)C=C[C@]4(C)[C@@]3(F)[C@@H](O)C[C@@]21C [betamethasone-21-thiopropionate-17-acetate],0.012,25.0,50.0,5.83,2.4,,,,,,
"CCCC(=O)O[C@]1(C(=O)CSC(=O)CC)CC[C@H]2[C@@H]3CCC4=CC(=O)CC[C@]4(C)[C@H]3[C@@H](O)C[C@@]21C [Example 2, 3,20-dione-11β-hydroxypregn-4-ene-21-thiopropionate-17-butyrate]",0.021,14.3,0.14,< 0.0096,> 1450,,,,,,
"CC(C)(C)C(=O)SCC(=O)[C@@]1(O)CC[C@H]2[C@@H]3CCC4=CC(=O)CC[C@]4(C)[C@H]3[C@@H](O)C[C@@]21C [Hydrocortisone-21-thiopivalate, hydrocortisone-21-thiopivalate]",2.5,0.12,6.90,,,0.0038,,3600,,,
CCCC(=O)O[C@]1(C(=O)CO)CC[C@H]2[C@@H]3CCC4=CC(=O)CC[C@]4(C)[C@H]3[C@@H](O)C[C@@]21C [hydrocortisone-17-butyrate],,,,,,,,,good similarity of activity compared with the vasoconstriction test,only has a limited activity in the granuloma test,
CCCCC(=O)O[C@]1(C(=O)CSC(C)=O)CC[C@H]2[C@@H]3CCC4=CC(=O)C=C[C@]4(C)[C@H]3[C@@H](O)C[C@@]21C [Prednisolone-21-thioacetate-17-valerate],0.008,37.5,1.38,0.24,58,,,,,,
"CCCC(=O)O[C@]1(C(=O)CSC(C)=O)CC[C@H]2[C@@H]3CCC4=CC(=O)CC[C@]4(C)[C@H]3[C@@H](O)C[C@@]21C [Example 1, 3,20-dione-11β-hydroxypregn-4-ene-21-thioacetate-17-butyrate]",0.0082,36.6,0.23,0.04,350,,,,,,6
"CCCCC(=O)O[C@]1(C(=O)COC(C)=O)CC[C@H]2[C@@H]3CCC4=CC(=O)C=C[C@]4(C)[C@H]3[C@@H](O)C[C@@]21C [Prednisolone-21-acetate-17-valerate, prednisolone-21-acetate-17-valerate]",0.0018,167,2.0,1.60,9,,,,,,
CC(=O)O[C@]1(C(=O)CSC(=O)CC(C)(C)C)[C@H](C)C[C@H]2[C@@H]3CCC4=CC(=O)C=C[C@]4(C)[C@@]3(F)[C@@H](O)C[C@@]21C [dexamethasone-21-thiotertiobutylacetate-17-acetate],0.0092,32.6,30.7,4.67,3,,,,,,
